# Assay results from ChEMBL document CHEMBL1909046, “DrugMatrix in vitro pharmacology data”.
# What was measured:
# [1] = target: T1, Vasoactive intestinal polypeptide receptor 1 (Homo sapiens, UniProt P32241); assay type: cell membranes, Membrane; details: ht-29; note: in other assays of this panel Not Active means under 50% inhibition at 10 µM
# T1 sequence (P32241 whole entry): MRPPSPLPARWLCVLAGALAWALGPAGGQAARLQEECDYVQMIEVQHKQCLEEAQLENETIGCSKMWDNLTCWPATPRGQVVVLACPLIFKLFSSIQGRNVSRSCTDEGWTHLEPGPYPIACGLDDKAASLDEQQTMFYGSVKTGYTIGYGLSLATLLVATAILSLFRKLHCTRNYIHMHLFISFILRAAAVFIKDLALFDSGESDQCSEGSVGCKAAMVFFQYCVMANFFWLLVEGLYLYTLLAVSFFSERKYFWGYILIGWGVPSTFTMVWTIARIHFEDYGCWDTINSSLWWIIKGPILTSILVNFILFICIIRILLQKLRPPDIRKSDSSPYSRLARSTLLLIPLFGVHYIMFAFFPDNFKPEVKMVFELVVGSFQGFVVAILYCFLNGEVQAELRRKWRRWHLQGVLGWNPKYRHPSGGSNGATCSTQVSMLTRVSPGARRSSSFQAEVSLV
# Adenosine receptor A2a = Adenosine receptor A2a (Homo sapiens, UniProt P29274); test: DRUGMATRIX: Adenosine A2A radioligand binding (ligand: […]); assay type: cell membranes, Membrane; details: hek293; Not Active = under 50% inhibition at 10 µM
# Adenosine receptor A2a, sequence (P29274 whole entry): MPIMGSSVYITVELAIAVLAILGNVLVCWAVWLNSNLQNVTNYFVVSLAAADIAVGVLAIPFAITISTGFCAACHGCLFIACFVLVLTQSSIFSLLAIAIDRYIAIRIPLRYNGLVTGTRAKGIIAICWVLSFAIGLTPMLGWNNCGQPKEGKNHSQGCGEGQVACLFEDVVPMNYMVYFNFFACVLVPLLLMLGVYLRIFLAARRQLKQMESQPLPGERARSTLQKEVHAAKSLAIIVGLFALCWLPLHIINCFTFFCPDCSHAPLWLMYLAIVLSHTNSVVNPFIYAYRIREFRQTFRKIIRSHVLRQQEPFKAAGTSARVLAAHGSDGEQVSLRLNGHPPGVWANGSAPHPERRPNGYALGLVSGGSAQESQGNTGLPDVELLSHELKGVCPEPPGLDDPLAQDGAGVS
# Melanocortin receptor 3 = Melanocortin receptor 3 (Homo sapiens, UniProt P41968); assay type: cell membranes, HEK293, Membrane; details: hek293; note: in other assays of this panel Not Active means under 50% inhibition at 10 µM
# Melanocortin receptor 3, sequence (P41968 whole entry): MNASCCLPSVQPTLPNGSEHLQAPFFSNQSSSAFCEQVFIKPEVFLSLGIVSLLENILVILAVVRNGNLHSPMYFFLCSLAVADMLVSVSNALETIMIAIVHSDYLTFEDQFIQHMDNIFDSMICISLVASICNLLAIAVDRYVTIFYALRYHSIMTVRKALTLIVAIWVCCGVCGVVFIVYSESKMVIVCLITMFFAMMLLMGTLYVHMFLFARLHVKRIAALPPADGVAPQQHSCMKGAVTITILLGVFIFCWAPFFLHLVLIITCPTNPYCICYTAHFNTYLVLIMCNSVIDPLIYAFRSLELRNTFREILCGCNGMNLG
# [2] = DRUGMATRIX: Purinergic P2X radioligand binding (ligand: [3H] alpha, beta-Methylene-ATP); assay type: cell membranes, Oryctolagus cuniculus, New Zealand albino, Urinary bladder, Membrane; details: Not Active = under 50% inhibition at 10 µM
# [3] = target: Beta-3 adrenergic receptor (Homo sapiens, UniProt P13945); test: DRUGMATRIX: Adrenergic beta3 radioligand binding (ligand: [125I] Cyanopindolol); assay type: cell membranes, HEK293, Membrane; details: hek293; Not Active = under 50% inhibition at 10 µM
# Beta-3 adrenergic receptor, sequence (P13945 whole entry): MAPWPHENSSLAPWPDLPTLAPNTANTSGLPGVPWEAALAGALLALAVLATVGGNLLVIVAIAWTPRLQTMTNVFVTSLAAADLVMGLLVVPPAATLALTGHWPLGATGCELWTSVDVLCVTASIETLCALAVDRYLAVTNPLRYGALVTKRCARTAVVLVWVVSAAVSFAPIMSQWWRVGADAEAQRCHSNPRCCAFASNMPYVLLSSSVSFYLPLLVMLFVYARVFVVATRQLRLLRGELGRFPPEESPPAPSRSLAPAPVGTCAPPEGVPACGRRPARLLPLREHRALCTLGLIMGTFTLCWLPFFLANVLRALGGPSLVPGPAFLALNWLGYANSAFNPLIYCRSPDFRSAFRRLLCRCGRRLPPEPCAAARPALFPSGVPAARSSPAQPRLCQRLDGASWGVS
# Adenosine receptor A1 = target: T2, Adenosine receptor A1 (Homo sapiens, UniProt P30542); assay type: cell membranes, CHO, Membrane; details: cho;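 note: radioligand binding assay at the adenosine A1 receptor, with DPCPX serving as the labelled ligand; in other assays of this panel Not Active means under 50% inhibition at 10 µM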
# T2 sequence (P30542 whole entry): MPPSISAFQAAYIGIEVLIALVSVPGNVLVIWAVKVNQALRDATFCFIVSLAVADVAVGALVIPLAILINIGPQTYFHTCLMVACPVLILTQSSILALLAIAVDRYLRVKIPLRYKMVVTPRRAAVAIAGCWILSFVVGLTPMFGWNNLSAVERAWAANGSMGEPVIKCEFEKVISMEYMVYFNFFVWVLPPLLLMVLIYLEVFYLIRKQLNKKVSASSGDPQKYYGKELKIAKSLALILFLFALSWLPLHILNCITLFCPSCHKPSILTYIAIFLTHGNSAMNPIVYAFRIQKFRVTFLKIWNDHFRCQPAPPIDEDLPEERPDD
# Cytochrome P450 1A2 = target: T3, Cytochrome P450 1A2 (Homo sapiens, UniProt P05177); details: bti-tn-5b1-4; note: in other assays of this panel Not Active means under 50% inhibition at 10 µM
# T3 sequence (P05177 whole entry): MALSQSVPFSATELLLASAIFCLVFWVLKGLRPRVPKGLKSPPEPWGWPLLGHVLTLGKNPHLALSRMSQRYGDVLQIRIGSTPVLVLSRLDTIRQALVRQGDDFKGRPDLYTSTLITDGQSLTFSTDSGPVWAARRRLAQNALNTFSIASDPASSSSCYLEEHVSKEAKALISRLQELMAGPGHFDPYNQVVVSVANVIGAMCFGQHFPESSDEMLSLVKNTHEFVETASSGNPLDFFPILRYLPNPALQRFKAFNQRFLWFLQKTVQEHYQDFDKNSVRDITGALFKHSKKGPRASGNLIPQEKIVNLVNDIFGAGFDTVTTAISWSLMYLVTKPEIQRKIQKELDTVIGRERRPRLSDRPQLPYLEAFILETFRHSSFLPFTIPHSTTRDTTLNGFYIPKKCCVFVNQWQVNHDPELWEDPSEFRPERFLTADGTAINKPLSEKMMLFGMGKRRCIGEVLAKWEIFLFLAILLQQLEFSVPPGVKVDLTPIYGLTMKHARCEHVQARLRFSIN
# [4] = target: Tyrosine-protein kinase Fyn (Homo sapiens, UniProt P06241); test: biochemical; assay type: cell-based, Insect cells
# Tyrosine-protein kinase Fyn, sequence (P06241 whole entry): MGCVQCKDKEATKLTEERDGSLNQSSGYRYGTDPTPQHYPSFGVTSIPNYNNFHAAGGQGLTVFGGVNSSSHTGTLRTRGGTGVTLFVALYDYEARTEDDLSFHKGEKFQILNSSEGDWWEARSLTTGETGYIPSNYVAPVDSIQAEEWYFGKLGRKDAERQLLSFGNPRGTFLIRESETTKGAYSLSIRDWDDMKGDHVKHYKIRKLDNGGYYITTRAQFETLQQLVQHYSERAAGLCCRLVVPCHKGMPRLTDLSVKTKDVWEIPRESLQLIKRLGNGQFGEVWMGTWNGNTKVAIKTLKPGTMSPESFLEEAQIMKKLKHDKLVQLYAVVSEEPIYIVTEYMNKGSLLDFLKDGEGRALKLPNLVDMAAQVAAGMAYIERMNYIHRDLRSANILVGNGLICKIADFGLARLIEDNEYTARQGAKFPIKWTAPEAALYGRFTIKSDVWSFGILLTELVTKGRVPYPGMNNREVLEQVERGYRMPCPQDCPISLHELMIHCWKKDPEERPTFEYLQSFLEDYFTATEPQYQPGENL
Compound,IC50 [1],IC50 (Adenosine receptor A2a),IC50 (Melanocortin receptor 3),IC50 [2],Ki [2],IC50 [3],IC50 (Adenosine receptor A1),IC50 (Cytochrome P450 1A2),Ki (Cytochrome P450 1A2),IC50 ([4]; insect cells),IC50 ([4]; read-out: IC50) [µM],Ki [1],Ki (Adenosine receptor A2a),Ki (Melanocortin receptor 3),Ki [3],Ki (Adenosine receptor A1)
CC(C)CN(C[C@@H](O)[C@H](Cc1ccccc1)NC(=O)O[C@H]1CCOC1)S(=O)(=O)c1ccc(N)cc1,Not Active,Not Active,Not Active,Not Active,Not Active,Not Active,Not Active,Not Active,Not Active,Not Active,,,,,,
c1ccc(Nc2ccc(Nc3ccccc3)cc2)cc1,Not Active,Not Active,Not Active,Not Active,Not Active,Not Active,Not Active,Not Active,Not Active,Not Active,,,,,,
COc1cc2c3cc1Oc1cc(ccc1O)C[C@@H]1c4c(cc(OC)c(O)c4Oc4ccc(cc4)C[C@@H]3N(C)CC2)CC[N+]1(C)C.[Cl-],Not Active,Not Active,Not Active,Not Active,Not Active,Not Active,Not Active,Not Active,Not Active,Not Active,,,,,,
NC(=O)N1c2ccccc2CCc2ccccc21,Not Active,Not Active,Not Active,Not Active,Not Active,Not Active,Not Active,Not Active,Not Active,Not Active,,,,,,
O=C1CC[C@@H](N2C(=O)c3ccccc3C2=O)C(=O)N1,Not Active,Not Active,Not Active,Not Active,Not Active,Not Active,Not Active,Not Active,Not Active,Not Active,,,,,,
"Cc1onc(O)c1CC(N)C(=O)O (racemic) [(R,S)-AMPA]",Not Active,Not Active,Not Active,Not Active,Not Active,Not Active,Not Active,Not Active,Not Active,Not Active,,,,,,
Cc1ccc2cc3c(ccc4ccccc43)c3c2c1CC3 [3-METHYLCHOLANTHRENE],Not Active,Not Active,Not Active,Not Active,Not Active,Not Active,Not Active,,,,25.2,,,,,
CC[C@@]1(O)C[C@H](O[C@H]2C[C@H](N(C)C)[C@H](O[C@H]3C[C@H](O)[C@H](O[C@H]4CCC(=O)[C@H](C)O4)[C@H](C)O3)[C@H](C)O2)c2c(cc3c(c2O)C(=O)c2c(O)cccc2C3=O)[C@H]1C(=O)OC [ACLARUBICIN],Not Active,Not Active,Not Active,Not Active,Not Active,Not Active,Not Active,Not Active,Not Active,Not Active,,,,,,
Nc1nc2c(ncn2COCCO)c(=O)[nH]1 [ACYCLOVIR],Not Active,Not Active,Not Active,Not Active,Not Active,Not Active,Not Active,Not Active,Not Active,Not Active,,,,,,
Cc1c(C)c2c(c(C)c1O)CC[C@@](C)(CCC[C@H](C)CCC[C@H](C)CCCC(C)C)O2 [ALPHA-TOCOPHEROL],Not Active,Not Active,Not Active,Not Active,Not Active,Not Active,Not Active,Not Active,Not Active,Not Active,,,,,,
CN(C)c1nc(N(C)C)nc(N(C)C)n1 [ALTRETAMINE],Not Active,Not Active,Not Active,Not Active,Not Active,Not Active,Not Active,,,Not Active,,,,,,
Nc1c(Br)cc(Br)cc1CN[C@H]1CC[C@H](O)CC1 [AMBROXOL],Not Active,Not Active,Not Active,Not Active,Not Active,Not Active,Not Active,,,Not Active,,,,,,
NCCCCCC(=O)O [AMINOCAPROIC ACID],Not Active,Not Active,Not Active,Not Active,Not Active,Not Active,Not Active,Not Active,Not Active,Not Active,,,,,,
CCC1(c2ccc(N)cc2)CCC(=O)NC1=O (configuration not stated) [AMINOGLUTETHIMIDE],Not Active,Not Active,Not Active,Not Active,Not Active,Not Active,Not Active,Not Active,Not Active,Not Active,,,,,,
Cc1ccc(/N=C/N(C)/C=N/c2ccc(C)cc2C)c(C)c1 [AMITRAZ],Not Active,Not Active,Not Active,Not Active,Not Active,Not Active,Not Active,Not Active,Not Active,Not Active,,,,,,
c1ccc2c(c1)c1cccc3ccc4cccc2c4c31 [BENZO[E]PYRENE],Not Active,Not Active,Not Active,Not Active,Not Active,Not Active,Not Active,,,Not Active,,,,,,
CN(C)CCCN1c2ccccc2Sc2ccc(Cl)cc21 [CHLORPROMAZINE],Not Active,Not Active,,Not Active,Not Active,Not Active,Not Active,,,,8.68,,,,,
CC(C)(Oc1ccc(Cl)cc1)C(=O)O [CLOFIBRIC ACID],Not Active,Not Active,Not Active,Not Active,Not Active,Not Active,Not Active,,,Not Active,,,,,,
C[C@]12CC[C@@H]3c4ccc(O)cc4CC[C@H]3[C@@H]1CCC2=O [ESTRONE],Not Active,Not Active,Not Active,Not Active,Not Active,Not Active,Not Active,,,Not Active,,,,,,
N=C(N)NCCN1CCCCCCC1 [GUANETHIDINE],Not Active,Not Active,Not Active,Not Active,Not Active,Not Active,Not Active,,,Not Active,,,,,,
CC1(C)S[C@@H]2[C@H](NC(=O)Cc3ccccc3)C(=O)N2[C@H]1C(=O)O [PENICILLIN G],Not Active,Not Active,Not Active,Not Active,Not Active,Not Active,Not Active,,,Not Active,,,,,,
CN(C)CCCN1c2ccccc2Sc2ccccc21 [PROMAZINE],Not Active,Not Active,Not Active,Not Active,Not Active,Not Active,Not Active,,,Not Active,,,,,,
CADMIUM ACETATE,Not Active,Not Active,Not Active,Not Active,Not Active,Not Active,Not Active,Not Active,Not Active,,,Not Active,Not Active,Not Active,Not Active,Not Active
LEAD (II) ACETATE,Not Active,Not Active,Not Active,Not Active,Not Active,Not Active,Not Active,Not Active,Not Active,,,Not Active,Not Active,Not Active,Not Active,Not Active
